The values below are quoted from earlier work in patent US12502373B2, “High-content abamectin emulsifiable concentrate” (Rotam Agrochem International Company Limited, priority 2021, dated 2025).

The conditions of data set [1]: pH: 5-9 and 25° C.

On to Abamectin, for which the “hydrolysis of the aqueous solution” value in data set [1] is on record as “will not be hydrolysed”. In the data set on rats, the “oral LD50” value is 1470 mg/kg.
